Experimental data reported in patent US7972800B2, “Screening method for binding property or signal transduction alterations” (Takeda Pharmaceutical Company Limited, priority 2003, dated 2011).

Key:
human GPR39 = biological target: T1, human GPR39 (Homo sapiens, UniProt O43194); details: Cytosensor, CHO/hGPR39 (FIG. 8)
T1 sequence (O43194 1-453): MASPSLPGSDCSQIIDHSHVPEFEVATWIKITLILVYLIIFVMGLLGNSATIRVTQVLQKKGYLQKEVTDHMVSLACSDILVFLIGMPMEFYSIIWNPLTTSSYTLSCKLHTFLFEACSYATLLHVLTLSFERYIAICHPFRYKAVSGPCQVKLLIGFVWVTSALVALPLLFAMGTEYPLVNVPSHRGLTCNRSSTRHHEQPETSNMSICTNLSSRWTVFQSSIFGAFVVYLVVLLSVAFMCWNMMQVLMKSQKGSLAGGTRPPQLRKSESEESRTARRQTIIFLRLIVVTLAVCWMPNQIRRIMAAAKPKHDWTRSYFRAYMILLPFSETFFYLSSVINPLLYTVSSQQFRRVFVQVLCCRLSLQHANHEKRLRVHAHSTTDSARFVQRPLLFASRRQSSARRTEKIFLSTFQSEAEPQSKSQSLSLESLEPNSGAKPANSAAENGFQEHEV
Procedure: (§1) Activation of the intracellular signal transduction system by ligands using a Cytosensor was determined in terms of the pH changes by metabolism of cells as an indicator.
(§2) The procedures were as follows. On the previous day, the human GPR39-expressing CHO cell line was cultured in a culture flask to reach a confluent state. After washing with PBS (Invitrogen Corp.), the cells were scraped off using trypsin (Invitrogen Corp.) and centrifuged for recovery. The cells were then suspended in medium and the suspension was adjusted to 3×10^5 cells/ml. The capsule of Cytosensor capsule kit (Molecular Device) was placed on a 12-well plate (Costar) and 1 ml of the cell suspension was charged therein. After covering with the lid, the cells were incubated at 37° C. in an incubator until next day. On the day when the assay was conducted, Cytosensor was activated as instructed by the protocol. Then, RPMI1640 medium (pH 7.4) (Invitrogen Corp.) for Cytosensor was prepared and equilibrated. The spacer was then placed in the capsule where the cells prepared on the previous day were seeded, and the capsule was set on Cytosensor. After equilibration with the medium, a sample was added to the cells by switching the flow path and pH changes were determined.

[1] = test system: mock cells where GPR39 was not expressed; details: Cytosensor, mock cells where GPR39 was not expressed (FIG. 8)
Procedure: as §1, §2

## [Cl][Ni][Cl] [nickel chloride]
Human GPR39
  cell response (pH change, acidification rate) in GPR39-expressed cells: a cell response specific to nickel was detected
[1]
  cell response (pH change) in mock cells: any response was not detected
